Experimental data reported in ChEMBL document CHEMBL4346710, “Discovery of 7H-pyrrolo[2,3-d]pyrimidine derivatives as selective covalent irreversible inhibitors of interleukin-2-inducible T-cell kinase (Itk)” (Eur J Med Chem, 2019).
The source made the active and inactive calls. No cut-off for these calls is given here.

How the values were obtained:
Homo sapiens = organism: Homo sapiens; test: Selectivity ratio of IC50 for recombinant human N-terminal His6-tagged JAK3 (781 to end residues) expressed in baculovirus infected Sf21 cells to IC50 for recombinant human N-terminal His6-tagged ITK (352 to 617 residues) expressed in baculovirus infected Sf21 insect cells
[1] = target: Tyrosine-protein kinase ZAP-70 (Homo sapiens) (UniProt P43403); test: Inhibition of recombinant full length human His-tagged ZAP70 cytoplasmic domain expressed in baculovirus expression system assessed as enzyme residual activity at 0.4 uM using fluorophore-labeled tyrosine-07 peptide as substrate incubated for 60 mins by Z'-LYTE assay relative to control
Tyrosine-protein kinase ZAP-70 (Homo sapiens), sequence (P43403 whole entry, the tested form may be a part, canonical isoform): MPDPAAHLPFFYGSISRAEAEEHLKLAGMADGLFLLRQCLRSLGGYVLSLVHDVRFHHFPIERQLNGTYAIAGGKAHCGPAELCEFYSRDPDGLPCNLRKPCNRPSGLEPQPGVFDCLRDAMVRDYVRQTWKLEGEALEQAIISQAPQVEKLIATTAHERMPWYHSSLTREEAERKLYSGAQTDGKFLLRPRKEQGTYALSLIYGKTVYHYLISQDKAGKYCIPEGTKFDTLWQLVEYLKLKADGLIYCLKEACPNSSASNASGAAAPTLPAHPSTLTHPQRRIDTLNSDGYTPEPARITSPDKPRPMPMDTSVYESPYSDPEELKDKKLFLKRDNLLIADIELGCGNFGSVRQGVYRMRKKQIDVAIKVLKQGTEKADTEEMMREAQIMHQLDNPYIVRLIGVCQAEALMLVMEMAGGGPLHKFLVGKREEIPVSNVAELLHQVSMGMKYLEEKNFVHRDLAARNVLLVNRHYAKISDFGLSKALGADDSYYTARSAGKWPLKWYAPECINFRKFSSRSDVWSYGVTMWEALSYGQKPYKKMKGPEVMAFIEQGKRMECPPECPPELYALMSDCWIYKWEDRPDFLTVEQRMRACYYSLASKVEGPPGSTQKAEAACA

[2] = target: Casein kinase I isoform alpha (Homo sapiens) (UniProt P48729); test: Inhibition of recombinant full length human GST-tagged CSNK1A1 expressed in baculovirus expression system assessed as enzyme residual activity at 0.4 uM using fluorophore-labeled serine/threonine-11 peptide as substrate incubated for 60 mins by Z'-LYTE assay relative to control
Casein kinase I isoform alpha (Homo sapiens), sequence (P48729 2-337 limits assumed): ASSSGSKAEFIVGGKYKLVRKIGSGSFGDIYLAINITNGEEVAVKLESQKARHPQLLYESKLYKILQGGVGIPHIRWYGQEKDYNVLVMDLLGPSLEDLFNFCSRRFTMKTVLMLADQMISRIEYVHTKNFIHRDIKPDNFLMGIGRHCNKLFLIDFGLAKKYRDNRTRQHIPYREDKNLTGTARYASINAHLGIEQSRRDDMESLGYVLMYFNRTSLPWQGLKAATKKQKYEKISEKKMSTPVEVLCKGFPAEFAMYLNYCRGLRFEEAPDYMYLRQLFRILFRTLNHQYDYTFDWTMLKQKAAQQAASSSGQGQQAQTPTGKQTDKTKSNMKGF

[3] = target: cAMP-dependent protein kinase catalytic subunit alpha (Homo sapiens) (UniProt P17612); test: Inhibition of recombinant human His-tagged PRKACA catalytic domain (1 to 351 residues) expressed in Escherichia coli assessed as enzyme residual activity at 0.4 uM using fluorophore-labeled serine/threonine-1 peptide as substrate incubated for 60 mins by Z'-LYTE assay relative to control
[4] = target: Serine/threonine-protein kinase Chk2 (Homo sapiens) (UniProt O96017); test: Inhibition of recombinant full length human His-tagged CHEK2 expressed in baculovirus expression system assessed as enzyme residual activity at 0.4 uM using fluorophore-labeled serine/threonine-07 peptide as substrate incubated for 60 mins by Z'-LYTE assay relative to control
Serine/threonine-protein kinase Chk2 (Homo sapiens), sequence (O96017 whole entry, the tested form may be a part): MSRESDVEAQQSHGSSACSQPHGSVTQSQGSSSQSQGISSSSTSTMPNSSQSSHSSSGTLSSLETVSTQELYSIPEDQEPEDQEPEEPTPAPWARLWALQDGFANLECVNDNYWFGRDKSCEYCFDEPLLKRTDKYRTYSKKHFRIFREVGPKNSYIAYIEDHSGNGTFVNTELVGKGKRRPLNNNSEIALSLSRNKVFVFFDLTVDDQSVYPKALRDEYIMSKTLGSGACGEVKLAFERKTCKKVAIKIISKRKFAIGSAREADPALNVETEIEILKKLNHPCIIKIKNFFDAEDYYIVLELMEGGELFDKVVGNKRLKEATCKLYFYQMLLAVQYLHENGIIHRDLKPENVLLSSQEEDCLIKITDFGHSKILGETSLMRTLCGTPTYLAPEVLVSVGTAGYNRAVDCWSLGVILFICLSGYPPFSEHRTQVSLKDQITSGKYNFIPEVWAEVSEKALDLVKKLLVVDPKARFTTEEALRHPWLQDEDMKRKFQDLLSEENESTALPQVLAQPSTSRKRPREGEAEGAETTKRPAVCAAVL

[5] = target: Epidermal growth factor receptor (Homo sapiens, UniProt P00533); test: Inhibition of human recombinant GST-tagged EGFR cytoplasmic domain (668 to 1210 residues) expressed in baculovirus expression system assessed as enzyme residual activity at 0.4 uM using fluorophore-labeled tyrosine-4 peptide as substrate by Z'-Lyte assay relative to control
Epidermal growth factor receptor, sequence (P00533 whole entry, the tested form may be a part): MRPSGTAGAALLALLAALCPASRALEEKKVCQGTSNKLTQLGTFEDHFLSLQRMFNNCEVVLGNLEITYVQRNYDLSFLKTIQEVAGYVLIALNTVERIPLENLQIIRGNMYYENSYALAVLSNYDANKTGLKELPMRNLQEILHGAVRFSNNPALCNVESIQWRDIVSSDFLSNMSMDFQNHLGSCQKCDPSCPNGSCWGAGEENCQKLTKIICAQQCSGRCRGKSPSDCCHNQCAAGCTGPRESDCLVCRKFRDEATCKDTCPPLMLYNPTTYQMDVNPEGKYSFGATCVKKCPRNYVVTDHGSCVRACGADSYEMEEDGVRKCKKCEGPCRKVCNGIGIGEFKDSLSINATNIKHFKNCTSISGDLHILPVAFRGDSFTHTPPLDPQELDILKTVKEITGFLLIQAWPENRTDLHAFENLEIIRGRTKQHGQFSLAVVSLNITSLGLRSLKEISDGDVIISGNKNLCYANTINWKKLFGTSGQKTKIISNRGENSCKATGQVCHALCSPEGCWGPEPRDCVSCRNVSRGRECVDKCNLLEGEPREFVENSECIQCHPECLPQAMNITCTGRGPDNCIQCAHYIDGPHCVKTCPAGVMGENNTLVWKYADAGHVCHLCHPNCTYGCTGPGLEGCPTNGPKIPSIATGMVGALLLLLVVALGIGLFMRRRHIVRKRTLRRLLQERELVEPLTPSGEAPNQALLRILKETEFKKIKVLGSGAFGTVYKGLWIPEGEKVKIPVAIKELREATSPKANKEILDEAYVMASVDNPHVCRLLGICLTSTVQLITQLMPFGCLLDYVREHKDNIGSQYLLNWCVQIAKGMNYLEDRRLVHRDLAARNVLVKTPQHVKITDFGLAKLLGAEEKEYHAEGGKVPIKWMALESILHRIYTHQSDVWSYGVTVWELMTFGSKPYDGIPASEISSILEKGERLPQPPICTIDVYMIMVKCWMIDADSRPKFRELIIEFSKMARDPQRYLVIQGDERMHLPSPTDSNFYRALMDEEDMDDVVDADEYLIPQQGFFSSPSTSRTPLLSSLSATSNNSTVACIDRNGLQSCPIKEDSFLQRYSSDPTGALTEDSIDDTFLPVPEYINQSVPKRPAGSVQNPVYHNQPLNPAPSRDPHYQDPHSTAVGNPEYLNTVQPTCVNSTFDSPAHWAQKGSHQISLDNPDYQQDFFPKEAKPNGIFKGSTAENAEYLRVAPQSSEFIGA

[6] = target: Tyrosine-protein kinase BTK (Homo sapiens, UniProt Q06187); test: Inhibition of recombinant full length human His-tagged BTK cytoplasmic domain expressed in baculovirus expression system assessed as enzyme residual activity at 0.4 uM using fluorophore-labeled tyrosine-1 peptide as substrate incubated for 60 mins by Z'-LYTE assay relative to control
Tyrosine-protein kinase BTK, sequence (Q06187 whole entry, the tested form may be a part): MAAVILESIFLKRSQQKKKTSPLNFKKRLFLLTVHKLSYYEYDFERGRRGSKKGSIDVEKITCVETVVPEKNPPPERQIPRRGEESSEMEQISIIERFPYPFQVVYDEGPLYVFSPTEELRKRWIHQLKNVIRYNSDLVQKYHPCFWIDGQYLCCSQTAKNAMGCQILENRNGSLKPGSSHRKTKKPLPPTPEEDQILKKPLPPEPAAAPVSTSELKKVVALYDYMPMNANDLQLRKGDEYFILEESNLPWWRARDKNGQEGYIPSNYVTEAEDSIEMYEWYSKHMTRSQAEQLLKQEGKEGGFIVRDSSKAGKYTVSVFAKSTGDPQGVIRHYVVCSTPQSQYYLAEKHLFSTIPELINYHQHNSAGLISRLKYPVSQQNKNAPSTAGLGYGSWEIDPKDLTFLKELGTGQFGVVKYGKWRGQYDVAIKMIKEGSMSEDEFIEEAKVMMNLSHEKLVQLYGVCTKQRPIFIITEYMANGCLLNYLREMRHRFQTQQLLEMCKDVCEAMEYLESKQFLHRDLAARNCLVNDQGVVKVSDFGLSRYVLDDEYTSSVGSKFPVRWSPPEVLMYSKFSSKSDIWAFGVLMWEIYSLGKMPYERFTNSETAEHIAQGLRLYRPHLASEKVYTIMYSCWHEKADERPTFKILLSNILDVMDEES

[7] = target: Aurora kinase B (Homo sapiens) (UniProt Q96GD4); test: Inhibition of recombinant full length human His-tagged Aurora B expressed in baculovirus expression system assessed as enzyme residual activity at 0.4 uM using fluorophore-labeled serine/threonine-1 peptide as substrate incubated for 60 mins by Z'-LYTE assay relative to control
Aurora kinase B (Homo sapiens), sequence (Q96GD4 whole entry, the tested form may be a part): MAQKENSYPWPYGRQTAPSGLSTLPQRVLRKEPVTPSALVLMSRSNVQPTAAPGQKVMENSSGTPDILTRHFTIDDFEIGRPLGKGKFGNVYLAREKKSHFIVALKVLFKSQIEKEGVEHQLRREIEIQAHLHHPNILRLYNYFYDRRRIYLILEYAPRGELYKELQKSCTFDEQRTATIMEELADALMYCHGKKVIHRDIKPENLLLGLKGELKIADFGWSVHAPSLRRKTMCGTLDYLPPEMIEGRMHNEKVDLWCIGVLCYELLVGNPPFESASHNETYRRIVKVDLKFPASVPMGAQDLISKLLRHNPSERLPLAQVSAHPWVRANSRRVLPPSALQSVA

[8] = target: Tyrosine-protein kinase Fyn (Homo sapiens) (UniProt P06241); test: Inhibition of recombinant full length C-terminal His-tagged human FYN cytoplasmic domain expressed in baculovirus expression system assessed as enzyme residual activity at 0.4 uM using fluorophore-labeled tyrosine-2 peptide as substrate by Z'-Lyte assay relative to control
Tyrosine-protein kinase Fyn (Homo sapiens), sequence (P06241 2-537 limits assumed): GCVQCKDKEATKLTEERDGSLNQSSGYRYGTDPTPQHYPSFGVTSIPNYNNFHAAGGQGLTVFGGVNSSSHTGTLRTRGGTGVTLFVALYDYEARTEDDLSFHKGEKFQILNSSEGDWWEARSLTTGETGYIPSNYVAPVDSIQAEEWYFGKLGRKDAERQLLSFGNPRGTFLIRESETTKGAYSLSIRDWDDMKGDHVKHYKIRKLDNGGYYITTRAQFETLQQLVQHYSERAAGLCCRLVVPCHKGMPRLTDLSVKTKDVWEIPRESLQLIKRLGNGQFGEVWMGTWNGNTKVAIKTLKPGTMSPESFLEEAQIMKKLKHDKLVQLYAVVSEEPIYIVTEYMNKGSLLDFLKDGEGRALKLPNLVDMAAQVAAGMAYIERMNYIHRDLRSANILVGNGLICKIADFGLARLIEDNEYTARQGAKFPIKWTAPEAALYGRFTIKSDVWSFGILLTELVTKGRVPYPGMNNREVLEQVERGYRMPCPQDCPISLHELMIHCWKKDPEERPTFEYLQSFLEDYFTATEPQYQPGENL

[9] = target: Tyrosine-protein kinase JAK3 (Homo sapiens) (UniProt P52333); test: Inhibition of recombinant human GST-tagged JAK3 catalytic domain (781 to 1124 residues) expressed in baculovirus expression system assessed as enzyme residual activity at 0.4 uM using fluorophore-labeled tyrosine-6 peptide as substrate incubated for 60 mins by Z'-LYTE assay relative to control
[10] = target: T1, Tyrosine-protein kinase ITK/TSK (Homo sapiens) (UniProt Q08881); test: Inhibition of recombinant human N-terminal His6-tagged ITK (352 to 617 residues) expressed in baculovirus infected Sf21 insect cells assessed as ratio of Kinact to Ki using STK substrate by HTRF assay
T1 sequence (whole entry): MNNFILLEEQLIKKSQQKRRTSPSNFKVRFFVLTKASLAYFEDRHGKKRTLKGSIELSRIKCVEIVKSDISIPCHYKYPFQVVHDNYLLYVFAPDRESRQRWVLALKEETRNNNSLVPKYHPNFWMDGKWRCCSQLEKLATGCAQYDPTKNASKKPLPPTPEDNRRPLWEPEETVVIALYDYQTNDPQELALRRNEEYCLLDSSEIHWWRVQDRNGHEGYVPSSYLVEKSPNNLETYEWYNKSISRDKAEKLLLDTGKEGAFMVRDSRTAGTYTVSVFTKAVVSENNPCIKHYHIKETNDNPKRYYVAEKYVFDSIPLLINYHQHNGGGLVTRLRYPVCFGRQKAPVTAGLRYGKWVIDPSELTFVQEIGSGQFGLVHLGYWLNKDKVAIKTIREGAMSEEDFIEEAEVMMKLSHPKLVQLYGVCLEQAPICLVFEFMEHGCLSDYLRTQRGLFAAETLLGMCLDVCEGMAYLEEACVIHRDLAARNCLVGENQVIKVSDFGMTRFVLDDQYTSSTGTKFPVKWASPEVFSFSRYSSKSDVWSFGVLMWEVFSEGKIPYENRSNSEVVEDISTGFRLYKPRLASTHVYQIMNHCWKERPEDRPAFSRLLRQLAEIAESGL

Jurkat = test: Induction of apoptosis in human Jurkat cells assessed as downregulation of PARP at 1 to 20 uM incubated for 24 hrs by Western blot analysis; format: functional, cell-based
MOLT-4 = test: Induction of apoptosis in human MOLT4 cells assessed as downregulation of caspase3 at 1 to 20 uM incubated for 24 hrs by Western blot analysis; format: functional, cell-based

- Activity [1]: 95%
- Activity [2]: 92.7%
- Activity [3]: 86%
- Activity [4]: 78.7%
- Activity [5]: 62%
- Activity [6]: 41.3%
- Activity [7]: 36%
- Activity [8]: 21%
- Activity [9]: 16.3%
- Ratio [10]: 101 ×10³ /M.s
Compound: C=CC(=O)N1CCC(Oc2nc(Nc3ccc(N4CCOCC4)cc3)nc3[nH]cc(-c4cncc(NC)n4)c23)CC1
- Ratio IC50 (Homo sapiens): 33
- Activity (Jurkat): Active
- Activity (MOLT-4): Active
